The text below walks through data of patent US20150274719A1, “AMINO-SUBSTITUTED IMIDAZO[1,2-A]PYRIDINECARBOXAMIDES AND THEIR USE” (BAYER PHARMA AKTIENGESELLSCHAFT, priority 2012, published 2015).

The assay addresses T1, recombinant guanylate cyclase reporter cell line (Rattus norvegicus, UniProt P19686+P20595).
T1 construct: expressed in transfected cells; host or cells: recombinant reporter cell line
T1 sequence (P19686 1-690): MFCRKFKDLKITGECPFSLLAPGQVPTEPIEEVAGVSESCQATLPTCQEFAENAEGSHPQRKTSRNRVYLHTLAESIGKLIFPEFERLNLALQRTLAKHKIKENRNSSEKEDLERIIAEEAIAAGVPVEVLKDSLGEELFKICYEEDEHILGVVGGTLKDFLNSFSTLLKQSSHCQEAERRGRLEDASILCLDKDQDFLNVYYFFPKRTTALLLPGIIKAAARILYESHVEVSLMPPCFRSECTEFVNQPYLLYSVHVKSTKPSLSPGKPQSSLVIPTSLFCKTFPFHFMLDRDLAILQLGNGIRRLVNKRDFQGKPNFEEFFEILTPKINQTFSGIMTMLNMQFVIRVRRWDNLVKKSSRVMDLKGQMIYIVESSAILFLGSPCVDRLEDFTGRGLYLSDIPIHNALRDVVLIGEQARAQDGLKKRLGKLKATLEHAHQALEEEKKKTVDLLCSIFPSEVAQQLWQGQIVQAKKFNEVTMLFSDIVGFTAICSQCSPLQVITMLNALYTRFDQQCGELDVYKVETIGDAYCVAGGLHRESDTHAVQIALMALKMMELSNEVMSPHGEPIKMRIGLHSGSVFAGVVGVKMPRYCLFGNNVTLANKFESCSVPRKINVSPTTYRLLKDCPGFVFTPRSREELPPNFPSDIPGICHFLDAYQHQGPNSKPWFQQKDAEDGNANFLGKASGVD
T1 sequence (P20595 1-619): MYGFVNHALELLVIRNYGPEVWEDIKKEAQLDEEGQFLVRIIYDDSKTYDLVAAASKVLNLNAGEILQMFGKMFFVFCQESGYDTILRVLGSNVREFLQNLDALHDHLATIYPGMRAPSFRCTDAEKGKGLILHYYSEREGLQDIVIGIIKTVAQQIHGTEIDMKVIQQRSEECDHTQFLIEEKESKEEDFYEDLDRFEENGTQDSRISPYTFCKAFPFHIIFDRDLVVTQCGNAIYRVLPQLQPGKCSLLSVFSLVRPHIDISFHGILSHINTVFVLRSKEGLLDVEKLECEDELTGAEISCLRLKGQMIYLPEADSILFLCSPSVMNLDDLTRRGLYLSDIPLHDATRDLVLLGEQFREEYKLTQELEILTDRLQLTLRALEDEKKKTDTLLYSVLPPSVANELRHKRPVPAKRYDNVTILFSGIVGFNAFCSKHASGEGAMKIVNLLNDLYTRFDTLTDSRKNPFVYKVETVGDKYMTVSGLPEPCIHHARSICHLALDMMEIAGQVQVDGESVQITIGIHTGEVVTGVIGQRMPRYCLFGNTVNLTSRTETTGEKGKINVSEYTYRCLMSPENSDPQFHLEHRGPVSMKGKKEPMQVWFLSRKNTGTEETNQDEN
Briefly: Action on recombinant guanylate cyclase reporter cell line. In kind it is cell-based. As to conditions: in some cases mean values from individual determinations. The method in brief:
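Read-out: MEC (minimal effective concentration) in cells. Reporter line carries recombinant sGC. Some values are averages of single runs.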
For `CCCC(C)(N)CNC(=O)c1c(C)nc2c(OCc3c(F)cccc3F)cc(Cl)cn12` (racemic) [Example 244, rac-N-(2-Amino-2-methylpentyl)-6-chloro-8-[(2,6-difluorobenzyl)oxy]-2-methylimidazo[1,2-a]-pyridine-3-carboxamide], the “MEC (minimal effective concentration)” value stood at 0.30 µM.

Turning to `Cc1cc(OCCC(C)C)c2nc(C)c(C(=O)NCC(C)(N)CC(C)C)n2c1` (racemic) [Example 249, rac-N-(2-Amino-2,4-dimethylpentyl)-2,6-dimethyl-8-(3-methylbutoxyl)imidazo[1,2-a]pyridine-3-carboxamide], the “MEC (minimal effective concentration)” value came to 1.00 µM.

As to `Cc1nc2c(OCc3c(F)cccc3F)cccn2c1C(=O)NCC1CCc2ccccc2N1` (racemic) [Example 250, rac-8-[(2,6-Difluorobenzyl)oxy]-2-methyl-N-(1,2,3,4-tetrahydroquinolin-2-ylmethyl)imidazo[1,2-a]pyridine-3-carboxamide], the “MEC (minimal effective concentration)” value came out at 1.00 µM.

`CCC(C)(N)CNC(=O)c1c(C)nc2c(OCc3c(F)cccc3F)cccn12` (racemic) [Example 254, rac-N-(2-Amino-2-methylbutyl)-8-[(2,6-difluorobenzyl)oxy]-2-methylimidazo[1,2-a]pyridine-3-carboxamide]: the “MEC (minimal effective concentration)” value turned out to be 0.30 µM.

On to `Cc1cc(OCCC(C(F)(F)F)C(F)(F)F)c2nc(C)c(C(=O)NCC(C)(N)CC(C)C)n2c1` (racemic) [Example 258, rac-N-(2-Amino-2,4-dimethylpentyl)-2,6-dimethyl-8-[4,4,4-trifluoro-3-(trifluoromethyl)butoxy]-imidazo[1,2-a]pyridine-3-carboxamide], for which the “MEC (minimal effective concentration)” value is 1.00 µM.

As for `Cc1cc(OCc2c(F)cccc2F)c2nc(C)c(C(=O)NCC(C)(N)C3CC3)n2c1` (racemic) [Example 259, rac-N-(2-Amino-2-cyclopropylpropyl)-8-[(2,6-difluorobenzyl)oxy]-2,6-dimethylimidazo[1,2-a]-pyridine-3-carboxamide], the “MEC (minimal effective concentration)” value was 0.03 µM.

Regarding `Cc1cc(OCc2c(F)cccc2F)c2nc(C)c(C(=O)NCC(C)(N)CCOCc3ccccc3)n2c1` (racemic) [Example 262, rac-N-[2-Amino-4-(benzyloxy)-2-methylbutyl]-8-[(2,6-difluorobenzyl)oxy]-2,6-dimethylimidazo-[1,2-a]pyridine-3-carboxamide], the “MEC (minimal effective concentration)” value was 0.10 µM.

Regarding `Cc1nc2c(OCc3c(F)cccc3F)cccn2c1C(=O)NCC(C)(N)COCc1ccccc1` (racemic) [Example 263, rac-N-[2-amino-3-(benzyloxy)-2-methylpropyl]-8-[(2,6-difluorobenzyl)oxy]-2-methylimidazo[1,2-a]pyridine-3-carboxamide], the “MEC (minimal effective concentration)” value was found to be 1.00 µM.

Consider `Cc1nc2c(OCc3c(F)cccc3F)cccn2c1C(=O)NCC(C)(N)CCOCc1ccccc1` (racemic) [Example 264, rac-N-[2-amino-4-(benzyloxy)-2-methylbutyl]-8-[(2,6-difluorobenzyl)oxy]-2-methylimidazo[1,2-a]pyridine-3-carboxamide], for which the “MEC (minimal effective concentration)” value was determined as 0.03 µM.

On to `Cc1cc(OCc2c(F)cccc2F)c2nc(C)c(C(=O)NCC(C)(N)COCc3ccccc3)n2c1` (racemic) [Example 265, rac-N-[2-amino-3-(benzyloxy)-2-methylpropyl]-8-[(2,6-difluorobenzyl)oxy]-2,6-dimethylimidazo[1,2-a]pyridine-3-carboxamide], for which the “MEC (minimal effective concentration)” value was 0.30 µM.

As to `Cc1cc(OCc2c(F)cccc2F)c2nc(C)c(C(=O)NCC(C)(N)CCO)n2c1` (racemic) [Example 270, rac-N-(2-Amino-4-hydroxy-2-methylbutyl)-8-[(2,6-difluorobenzyl)oxy]-2,6-dimethylimidazo[1,2-a]pyridine-3-carboxamide], the “MEC (minimal effective concentration)” value was 1.00 µM.

With `Cc1nc2c(OCc3c(F)cccc3F)cccn2c1C(=O)NCC(C)(N)CO` (racemic) [Example 273, rac-N-(2-Amino-3-hydroxy-2-methylpropyl)-8-[(2,6-difluorobenzyl)oxy]-2-methylimidazo[1,2-a]-pyridine-3-carboxamide], the “MEC (minimal effective concentration)” value was determined as 1.00 µM.

As for `CCCC(C)(N)CNC(=O)c1c(C)nc2c(OCc3c(F)cccc3F)c(F)ccn12` (racemic) [Example 277, rac-N-(2-Amino-2-methylpentyl)-8-[(2,6-difluorobenzyl)oxy]-7-fluoro-2-methylimidazo[1,2-a]-pyridine-3-carboxamide], the “MEC (minimal effective concentration)” value was 1.00 µM.

`CCCC(C)(N)CNC(=O)c1c(C)nc2c(OCc3c(F)ccc(F)c3F)cc(C)cn12` (racemic) [Example 293, rac-N-(2-amino-2-methylpentyl)-2,6-dimethyl-8-[(2,3,6-trifluorobenzyl)oxy]imidazo[1,2-a]pyridine-3-carboxamide]: the “MEC (minimal effective concentration)” value was 0.03 µM.

Regarding `Cc1cc(OCc2c(F)cccc2F)c2nc(C)c(C(=O)NCC(C)(N)Cc3ccc(F)cc3)n2c1` (racemic) [Example 296, rac-N-[2-amino-3-(4-fluorophenyl)-2-methylpropyl]-8-[(2,6-difluorobenzyl)oxy]-2,6-dimethylimidazo[1,2-a]pyridine-3-carboxamide], the “MEC (minimal effective concentration)” value was found to be 0.10 µM.

Consider `Cc1cc(OCc2c(F)cccc2F)c2nc(C)c(C(=O)NCC(C)(N)Cc3ccccn3)n2c1` (racemic) [Example 297, rac-N-[2-amino-2-methyl-3-(pyridin-2-yl)propyl]-8-[(2,6-difluorobenzyl)oxy]-2,6-dimethylimidazo[1,2-a]pyridine-3-carboxamide], for which the “MEC (minimal effective concentration)” value turned out to be 0.10 µM.

With `Cc1cc(OCc2c(F)cccc2F)c2nc(C)c(C(=O)NC3CCNCC3(F)F)n2c1` (racemic) [Example 299, rac-8-[(2,6-difluorobenzyl)oxy]-N-(3,3-difluoropiperidin-4-yl)-2,6-dimethylimidazo[1,2-a]pyridine-3-carboxamide], the “MEC (minimal effective concentration)” value amounted to 0.10 µM.

As for `CCCC(C)(N)CNC(=O)c1c(CC)nc2c(OCc3c(F)cccc3F)cc(C)cn12` (racemic) [Example 301, rac-N-(2-amino-2-methylpentyl)-8-[(2,6-difluorobenzyl)oxy]-2-ethyl-6-methylimidazo[1,2-a]pyridine-3-carboxamide], the “MEC (minimal effective concentration)” value amounted to 0.10 µM.

As to `Cc1cc(OCc2c(F)cccc2F)c2nc(C)c(C(=O)NC3CCNC(C(F)(F)F)C3)n2c1` (racemic) [Example 302, rac-8-[(2,6-difluorobenzyl)oxy]-2,6-dimethyl-N-[2-(trifluoromethyl)piperidin-4-yl]imidazo[1,2-a]pyridine-3-carboxamide], the “MEC (minimal effective concentration)” value is 0.10 µM.

Consider `Cc1cc(OCc2c(F)cccc2F)c2nc(C)c(C(=O)NCC(C)(N)Cc3nc4ccccc4s3)n2c1` (racemic) [Example 310, rac-N-[2-amino-3-(1,3-benzothiazol-2-yl)-2-methylpropyl]-8-[(2,6-difluorobenzyl)oxy]-2,6-dimethylimidazo[1,2-a]pyridine-3-carboxamide], for which the “MEC (minimal effective concentration)” value is 0.30 µM.

On to `CCCC(C)(N)CNC(=O)c1c(C)nc2c(OCc3c(F)c(F)cc(F)c3F)cc(C)cn12` (racemic) [Example 311, rac-N-(2-amino-2-methylpentyl)-2,6-dimethyl-8-[(2,3,5,6-tetrafluorobenzyl)oxy]imidazo[1,2-a]pyridine-3-carboxamide], for which the “MEC (minimal effective concentration)” value turned out to be 0.30 µM.

Consider `Cc1cc(OCc2c(F)cccc2F)c2nc(C)c(C(=O)NC3CNCC(F)(F)C3)n2c1` (racemic) [Example 312, rac-8-[(2,6-difluorobenzyl)oxy]-N-(5,5-difluoropiperidin-3-yl)-2,6-dimethylimidazo[1,2-a]pyridine-3-carboxamide], for which the “MEC (minimal effective concentration)” value turned out to be 0.30 µM.

For `Cc1cc(OCc2c(F)cccc2F)c2nc(C)c(C(=O)NC3CCCCNC3)n2c1` (racemic) [Example 316, rac-N-(azepan-3-yl)-8-[(2,6-difluorobenzyl)oxy]-2,6-dimethylimidazo[1,2-a]pyridine-3-carboxamide], the “MEC (minimal effective concentration)” value was 0.30 µM.
